Source: US9539141B2, “System and method for ocular iontophoresis with buffering” (Eyegate Pharmaceuticals, Inc., priority 2008, dated 2017)

Experiment: pH of aqueous solution at dosing concentration
Details: aqueous solution at dosing concentration of 40 mg/mL

Question: For `C[C@@H]1C[C@H]2[C@@H]3CCC4=CC(=O)C=C[C@]4(C)[C@@]3(F)[C@@H](O)C[C@]2(C)[C@@]1(O)C(=O)COP(=O)(O)O` [dexamethasone phosphate], which “pH of aqueous solution” value is on record?
Answer: Its value is 5.7.
